From patent publication US20060210658A1, “Processes for obtaining (-)-guaiol and the use thereof” (priority 2000, published 2006)

Legend:
Assay in all cases: Antimicrobial action test (MIC)
Type in all cases: cell-based
[1] = test system: Trichophyton schoenleinii
From the text: (§1) Examples (Table 1): (MIC—minimum inhibitory concentration)
(§2) Examples: (MIC=minimum inhibitory concentration)

[2] = test system: Trichophyton rubrum
From the text: as §1, §2

[3] = test system: Selenomonas artemidis
From the text: as §1, §2

[4] = test system: Malassezia furfur
From the text: as §1, §2

[5] = test system: Trichophyton mentagrophytes
From the text: as §1, §2

[6] = test system: Microsporum gypseum
From the text: as §1, §2

[7] = test system: Epidermophyton floccosum
From the text: as §1, §2

[8] = test system: Microsporum canis
From the text: as §1, §2

[9] = test system: Staphylococcus aureus
From the text: as §1, §2

[10] = test system: Staphylococcus sobrinus
From the text: as §1, §2

[11] = test system: Staphylococcus mutans
From the text: as §1, §2

[12] = test system: Porphyromonas gingivalis
From the text: as §1

Measured: MIC (minimum inhibitory concentration)

cyclodextrin [pure cyclodextrin]
>10000 ppm: all assays above
